{"source": "patent US20070032453A1", "about": "“ADJUVANT CHEMOTHERAPY FOR ANAPLASTIC GLIOMAS” (Oklahoma Medical Research Foundation, priority 2005, published 2007)", "key": {"C6 gliomas [1]": {"test_system": "C6 gliomas", "experiment": "MR angiography of C6 gliomas (angiogenesis, arterial blood volumes)", "format": "in vivo, rat", "procedure": "Angiography. Coronal slices are acquired by a FLASH (fast low angle shot) method with a volume of interest of 2.7×1.7×1.2 cm^3, an echo time of 2.3 ms, a repetition time of 25 ms and a flip angle of 25° for an acquisition time of 27 min. A MIP (maximum intensity projection) technique was then applied to the data to obtain a 3D-angiography. Angiography was used to visualize new blood vessel formation, i.e., angiogenesis.\nThe method used was quantitative analysis (using a Mathematica-based program developed in our laboratory) of arterial signal intensities from in vivo MR angiography data. Glioma region arterial blood volumes were compared to blood volumes in the contralateral control cerebral hemisphere."}, "C6 gliomas [2]": {"test_system": "C6 gliomas", "experiment": "Image-guided MR spectroscopy, metabolite ratios in C6 glioma", "format": "in vivo, rat", "conditions": "C6 glioma rats treated with PBN", "procedure": "MRS experiments. Water suppression was performed by a CHESS (chemical shift suppression) method. A spectrum was acquired in a […] voxel in the tumor region and in the contralateral control side of the brain, by using PRESS (point resolved spectroscopy) with a repetition time of 3000 ms, an echo time of 21.34 ms for an acquisition time of 13 min. An outer volume suppression tool was used to get rid of the 5 mm thick surrounding signal around the voxel. The metabolite peaks were assigned as follows, based on previous literature (Fan et al., 2004; Griffin et al., 2003): NAA at 2.02 ppm, Cr at 3.03 ppm, Cho at 3.25 ppm and mobile lipids at 1.33 ppm (methylene group) and 0.9 ppm (methyl group). Peak areas were calculated in reference to Cr peak and relative ratios were determined: NAA/Cho, NAA/Cr, Cho/Cr and Lipids/Cr. A decrease in NAA levels and an increase in lipids are indicative of the presence of a glioma (Ishimaru et al., 2001).\nMR spectral peak areas were measured using the Bruker XWIN NMR peak intragration software package."}, "HIF-1α [3]": {"test_system": "HIF-1α", "experiment": "IGF-1 induced HIF-1α expression in Hepa 1-6 cells", "format": "cell-based", "conditions": "mouse hepatocellular carcinoma cell line (Hepa 1-6)", "text": "(§1) The band densities of HIF-1α were normalized by the bands of CoCl2 which was used as the positive control.\n(§2) HIF-1α is a major transactivation factor which is central to the induction of VEGF as well as iNOS and many other genes very important in the development of cancer. VEGF is very important in angiogenesis essential for tumor growth and is a major target of several anti-cancer companies."}, "C6 gliomas [4]": {"test_system": "C6 gliomas", "experiment": "Survival of rats with intracerebral C6 glioma", "format": "in vivo, rat", "text": "FIG. 11—Anti-Glioma Therapy/Percent Survival. […] Based on survival data obtained from FIG. 10."}, "HIF-1α [5]": {"test_system": "HIF-1α", "experiment": "IGF-1 induced HIF-1α expression in HCT-116 cells", "format": "cell-based", "conditions": "HCT116 human colon cancer cells, 20% O2", "text": "as §1, §2"}, "C6 gliomas [6]": {"test_system": "C6 gliomas", "experiment": "C6 glioma growth in rats monitored by T2-weighted MRI (tumor volumes, ImageJ)", "format": "in vivo, rat", "procedure": "(§3) Cells injection. Three-month-old male Fischer 344 rats (250-350 g) were fed a choline-deficient diet. Each animal was anesthetized (3% isoflurane at 2.5 L/mn oxygen) and placed on a stereotaxic device (Stoelting, USA). The skin of the head was cleaned and incised. A hole was drilled through the skull 2 mm anterior and 2 mm lateral to the bregma, in the right-hand side of the skull. C6, 9L/LacZ or F98 cells (10^6 in 10 μL cell culture media) in a ultra-low gelling temperature agarose are injected in the cortex at a 3 mm-depth at a rate of 2 μL/mn. A waiting time of 2 min was implemented following injection and bone wax was put in the burr-hole to prevent any reflux. The wound was sutured and covered with surgical glue. The surgery was performed in sterile conditions. The syringes containing the C6, 9L/LacZ or F98 cells are kept at 37° C. until the moment of use.\nPBN treatment. […] The treatment was continuous and was started at different time points. […] Some rats were not treated and served as controls (n=5).\nMRI experiments. MRI experiments were performed on a 7 Tesla-30 cm horizontal bore magnet (Bruker BioSpin MRI Gmbh, Germany) at day 6-10 after the cells were injected and then every 2-3 days until the death of the rat. The animal was anesthetized (1.5% isoflurane at 1.5 L/mn oxygen) and placed in a MR probe (Bruker BioSpin MRI Gmbh, Germany). A head coil (Bruker BioSpin MRI Gmbh, Germany) was put on its head and the brain was localized.\n(§4) Tumor growth monitoring. T1/T2-weighted images were obtained by a double-echo multi-slice spin echo method. Twenty-four axial slices of 1 mm thickness with an interslice distance of 1 mm were taken with a repetition time of 2369.64 ms and echo times of 17.41 ms and 63.85 ms for an acquisition time of 20 min. Tumor volumes were determined with the software ImageJ 1.32j (NIH, USA).\nA T2-weighted morphological MRI method was used."}, "F98 gliomas": {"test_system": "F98 gliomas", "experiment": "F98 glioma growth in rats monitored by T2-weighted MRI", "format": "in vivo, rat", "conditions": "PBN five days prior to intracerebral cell implantation", "procedure": "as §3, §4"}, "c-MET": {"target": "c-MET (Homo sapiens, UniProt P08581)", "sequence (P08581 25-1390)": "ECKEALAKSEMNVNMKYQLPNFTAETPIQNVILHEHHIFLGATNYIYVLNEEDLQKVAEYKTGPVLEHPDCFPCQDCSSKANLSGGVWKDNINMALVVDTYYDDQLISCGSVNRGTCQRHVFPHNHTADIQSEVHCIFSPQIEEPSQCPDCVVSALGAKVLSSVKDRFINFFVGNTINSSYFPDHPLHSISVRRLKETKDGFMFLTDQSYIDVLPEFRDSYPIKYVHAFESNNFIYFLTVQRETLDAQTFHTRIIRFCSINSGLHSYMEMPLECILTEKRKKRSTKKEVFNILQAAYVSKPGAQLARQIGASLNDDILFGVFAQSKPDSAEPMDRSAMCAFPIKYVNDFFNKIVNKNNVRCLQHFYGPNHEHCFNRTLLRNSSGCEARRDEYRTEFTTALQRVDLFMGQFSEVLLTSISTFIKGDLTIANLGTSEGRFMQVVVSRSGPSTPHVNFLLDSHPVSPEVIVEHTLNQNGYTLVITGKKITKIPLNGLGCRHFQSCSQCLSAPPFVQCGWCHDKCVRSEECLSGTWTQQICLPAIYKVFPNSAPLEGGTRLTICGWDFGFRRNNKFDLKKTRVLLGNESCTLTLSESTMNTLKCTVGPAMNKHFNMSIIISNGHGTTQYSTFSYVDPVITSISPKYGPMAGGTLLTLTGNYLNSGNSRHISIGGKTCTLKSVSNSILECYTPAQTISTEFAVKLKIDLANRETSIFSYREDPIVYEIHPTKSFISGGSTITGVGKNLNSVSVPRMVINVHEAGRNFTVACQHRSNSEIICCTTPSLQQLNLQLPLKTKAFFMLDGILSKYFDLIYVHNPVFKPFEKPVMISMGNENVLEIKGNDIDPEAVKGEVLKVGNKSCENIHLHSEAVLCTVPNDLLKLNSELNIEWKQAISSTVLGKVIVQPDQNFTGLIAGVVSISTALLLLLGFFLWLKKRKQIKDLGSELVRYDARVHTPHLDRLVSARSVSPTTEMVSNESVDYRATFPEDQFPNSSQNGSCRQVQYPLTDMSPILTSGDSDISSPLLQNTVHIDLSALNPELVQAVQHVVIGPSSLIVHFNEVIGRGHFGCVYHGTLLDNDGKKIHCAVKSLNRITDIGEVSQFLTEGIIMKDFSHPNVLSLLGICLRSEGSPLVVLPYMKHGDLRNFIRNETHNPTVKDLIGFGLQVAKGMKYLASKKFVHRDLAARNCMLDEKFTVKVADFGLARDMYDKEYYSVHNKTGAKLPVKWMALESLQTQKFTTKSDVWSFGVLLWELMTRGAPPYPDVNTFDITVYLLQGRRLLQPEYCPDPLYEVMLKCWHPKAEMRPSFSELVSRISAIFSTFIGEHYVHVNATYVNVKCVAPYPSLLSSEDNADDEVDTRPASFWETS", "experiment": "c-MET inhibition"}, "[7]": {"conditions": "cited from earlier work"}, "C6 gliomas [8]": {"test_system": "C6 gliomas", "experiment": "Histology (H&E) of C6 glioma rat brain", "format": "in vivo", "conditions": "C6 rat glioma treated with PBN", "text": "Note that PBN-treated C6 glioma rat brain has neuronal cells that appear similar to control rat brain. Untreated C6 glioma depicts malignant cells that are atypical in appearance (grade II to III) with few mitotic and apoptotic figures being present.\nConclusion. […] The malignant cells in the large neoplastic mass (FIG. 8B) were moderately atypical in appearance (grade II to III) with few mitotic and apoptotic figures being present. Large central areas of the mass […]) were also necrotic."}, "[9]": {"conditions": "PBN started 5 days before surgery"}}, "note": "“Also recorded” adds a separate entry of the source.", "data": [{"smiles": "CC(C)(C)[N+]([O-])=Cc1ccccc1", "note": "[PBN, phenyl N-tert-butyl nitrone]", "values": [{"measurement": "normalized tumor arterial blood volumes", "setting": "C6 gliomas [1]; C6 glioma, PBN 5 days prior to cell implantation, quantitative MR angiography", "value": "suppression and/or a decrease in blood volumes"}, {"measurement": "changes in angiogenesis (angiograms)", "setting": "C6 gliomas [1]; C6 gliomas, Example 2, qualitative MR angiography", "value": "did not seem to induce changes in angiogenesis"}, {"measurement": "NAA levels compared to choline (Cho) levels", "setting": "C6 gliomas [2]", "value": "increase to normal levels"}, {"measurement": "lipid levels compared to creatine (Cr) levels", "setting": "C6 gliomas [2]", "value": "decrease to normal levels"}, {"measurement": "induction of HIF-1α", "setting": "HIF-1α [3]", "value": "inhibits the induction of HIF-1α"}, {"measurement": "rats surviving longer than 40 days (study end-point)", "setting": "C6 gliomas [4]; PBN 5 days prior to C6 cell implantation", "value": "Eighty"}, {"measurement": "rats surviving longer than 40 days", "setting": "C6 gliomas [4]; PBN 14 days after C6 cell implantation", "value": 40, "unit": "%"}, {"measurement": "induction of HIF-1α", "setting": "HIF-1α [5]", "value": "inhibits the induction of HIF-1α"}, {"measurement": "doubling time", "setting": "C6 gliomas [6]; PBN 75 mg/kg/day in drinking water started on the day of surgery or 5 days after", "value": "2.3 to 2.4", "unit": "days"}, {"measurement": "doubling time", "setting": "C6 gliomas [6]; [9]", "value": 4.1, "unit": "days"}, {"measurement": "maximum tumor volume", "setting": "C6 gliomas [6]; [9]", "value": 50, "unit": "mm^3"}, {"measurement": "tumor course after maximal volume", "setting": "C6 gliomas [6]; PBN started on the day of surgery or 5 days after", "value": "the tumor starts to regress until it almost completely disappears"}, {"measurement": "animals with recession of tumor / eradication of further tumor formation", "setting": "C6 gliomas [6]; PBN starting 14 days after cell implantation, tumors >50 mm3", "value": 40, "unit": "%"}, {"measurement": "glioma growth outcome", "setting": "C6 gliomas [6]; continuous PBN starting 5 days prior to cell implantation, n=5", "value": "recession to no tumor in all animals studied; also recorded: either not develop or recede once intially formed in all rats"}, {"measurement": "glioma development", "setting": "F98 gliomas", "value": "not develop in all rats"}, {"measurement": "c-MET inhibition", "setting": "c-MET", "value": "inhibits c-MET"}, {"measurement": "tissue distribution", "setting": "[7]; rat, in vivo", "value": "readily and rapidly distributed almost equally to all tissues"}, {"measurement": "half-life", "setting": "[7]; rats", "value": "about 132 minutes"}, {"measurement": "histology (H&E), tumor cells", "setting": "C6 gliomas [8]", "value": "no evidence of tumor cells"}]}, {"smiles": "CC(C)(C)[N+]([O-])=Cc1ccc(O)cc1", "note": "[4-hydroxy-PBN, 4-hydroxyphenyl N-tert-butylnitrone]", "values": [{"measurement": "animals with decrease in tumor growth and angiogenesis", "setting": "C6 gliomas [1]; C6 gliomas, morphology and angiography data", "value": "2 of 5"}, {"measurement": "animals with suppressed and recessed tumor growth", "setting": "C6 gliomas [6]; 75 mg/kg/day in drinking water from 5 days prior to implantation, n=5", "value": 40, "unit": "%"}]}]}
